Experimental findings from PubChem BioAssay (NCI) are described below.

What all share (test): inhibition of tumour cell growth, NCI panel, 48 h
Test [1] has as its system CAKI-1 renal.
Test [2] relates to LOX IMVI melanoma.
Test [3] has as its system U251 CNS.
In test [4] the test system is SK-OV-3 ovarian.
The subject of test [5] is IGROV1 ovarian.
Test [6] concerns TK-10 renal.
Test [7] concerns SNB-19 CNS.
Test [8] deals with EKVX NSCLC.
The subject of test [9] is MALME-3M melanoma.
For test [10], the system named is UACC-62 melanoma.

SMILES strings stand for the structures. “And” between values parts separate entries of the source, which are not always exact repeats. Equal values may be shown once.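 Method: 48-hour compound exposure of cells in 96-well plates, five concentrations, linear interpolation of endpoints. GI50 is the concentration that inhibits growth by half. TGI marks complete inhibition of growth.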

As to `NC(CS)C(=O)NCCNc1ccc(NCCNC(=O)C(N)CS)c2c1C(=O)c1c(O)ccc(O)c1C2=O` (stereo not given), the TGI in test [1] is 0.566 µM and 0.104 µM; in [2], 0.205 µM and 0.165 µM; in [3] it was 0.136 µM and 0.117 µM; in [5], 1.47 µM; in test [6], 3.58 µM and 0.49 µM; in test [7], 1.11 µM and 1.21 µM. Besides, the TGI in [8] is 1.05 µM and 0.274 µM; in test [9], 1.27 µM and 1.24 µM; in test [10], 0.516 µM and 0.249 µM. Further, the GI50 was 0.0149 µM in [2]; 0.0165 µM in test [4]; 0.08 µM in test [6]; 0.0538 µM in [8]; 0.0818 µM in [9]; 0.0196 µM in test [10].

Take `CCOC(=O)C(NC(=O)c1ccccc1)(Nc1ccc(S(=O)(=O)Nc2ccc(OC)nn2)cc1)C(F)(F)F` (stereo not given): the TGI in [1], in test [2], in test [3], in test [4], in [5] and in test [6] was more than 100 µM in each case. The TGI in [7], in [8], in test [9] and in test [10] was more than 100 µM each time.

Consider `COc1cc2c(cc1OC)-c1[nH]c3ccc([N+](=O)[O-])cc3c1CC(=O)N2`, for which the TGI in test [1] was more than 26.9 µM; in [2], more than 100 µM; in test [3], more than 100 µM; in [4], more than 29.8 µM; in test [5] it was more than 100 µM; in test [6], 8.92 µM. The TGI is more than 100 µM in test [7], more than 84.3 µM in [8], 9.34 µM in test [9] and more than 100 µM in [10].

Turning to `O=[N+]([O-])c1ccc2c(N=Nc3ccc4ccccc4c3O)c(O)cc(S(=O)(=O)O)c2c1`, the TGI was more than 80.6 µM in test [1]; more than 90.2 µM in test [2]; more than 100 µM in test [3]; more than 100 µM in test [4]; more than 61.9 µM in [5]; more than 100 µM in test [6]. Also, the TGI in test [7] is more than 83.2 µM; in test [8], more than 82.1 µM; in test [9] it was 85 µM; in [10], 71.9 µM.

In the case of `Cc1ccc(O)cc1` (tested in a mixture with another compound), the TGI in test [1], in test [2], in [3], in test [4], in [5] and in test [6] was more than 100 µM throughout. Moreover, the TGI in test [7], in test [8], in test [9] and in test [10] was more than 100 µM throughout.

As to `CC(=O)OC12OC(C)(C3C(=O)N(c4ccccc4)C(=O)C31)N(c1ccccc1)C2=O` (stereo not given), the TGI in test [1], in test [2], in [3], in [4], in [5] and in test [6] was more than 100 µM each time. In addition, the TGI in test [7], in [8], in test [9] and in [10] was more than 100 µM in each case.

For the molecule `CN(C)C=Nc1c2c(nc3ccccc13)CCCC2`, the TGI in test [1], in test [2], in [3], in test [4], in [5] and in test [6] was more than 100 µM each time. Also, the TGI in test [7], in test [8], in test [9] and in test [10] was more than 100 µM throughout.

In the case of `Cn1c(=O)oc2cc(C(=S)N3CCCCC3)ccc21`, the TGI in test [1], in [2], in test [3], in [4], in test [5] and in test [6] was more than 100 µM each time. For the same molecule, the TGI in test [7], in test [8], in [9] and in test [10] was more than 100 µM in each case.

In the case of `COc1cc(/C=C/c2ccc(S(N)(=O)=O)cc2)cc(OC)c1`, the GI50 in [1] is 19 µM; in [2] it was 18.2 µM; in [3] it was 17.1 µM; in [5] it was 23.1 µM; in test [10], 15.4 µM. Moreover, the TGI in [1] was 47.3 µM; in test [2] it was 34 µM; in test [3] it was more than 100 µM; in test [4] it was 75.7 µM; in test [5], 45.5 µM; in test [6], 53.9 µM. Further, the TGI in test [7] is more than 100 µM; in test [8], 86 µM; in [9], 41.6 µM; in test [10], 30.3 µM.

Consider `CCOC(=O)[C@@]12NN=N[C@@H]1[C@H]1CO[C@H](c3ccccc3)N1C2=O`, for which the TGI came out at 24.8 µM in [1]; 4.92 µM in test [2]; 18.4 µM in test [3]; 33.6 µM in [4]; 20.3 µM in [5]; 30.5 µM in test [6]. In addition, the TGI in [7] is 25 µM; in test [8], 28.8 µM; in test [9] it was 26.8 µM; in test [10] it was 21.2 µM.

As to `COC(=O)[C@@H](NC(=O)c1ccc(CNC(=O)/C(C)=C/c2ccccc2)cc1)C(C)C`, the TGI in test [1], in test [2], in [3], in test [4], in test [5] and in test [6] was more than 100 µM each time. In addition, the TGI in test [7], in test [8], in test [9] and in test [10] was more than 100 µM throughout.

As to `O=C1C(=O)N(C23CC4CC(CC(C4)C2)C3)C(=S)N1c1ccccc1`, the TGI in test [1], in test [2], in test [3], in [4], in test [5] and in [6] was more than 100 µM in each case. Moreover, the TGI in test [7], in test [8], in test [9] and in test [10] was more than 100 µM throughout.

`COc1cccc(/C=N/NC(=O)CN(C)C)c1O`: the TGI in test [1], in [2], in test [3], in [4], in [5] and in test [6] was more than 100 µM in each case. Further, the TGI in test [7], in test [8], in test [9] and in test [10] was more than 100 µM throughout.

For `O=C1C=CC(=O)[C@H]2C3C=CC(C4C3C3(Cl)C(Cl)=C(Cl)[C@]4(Cl)C3(Cl)Cl)[C@@H]12` (stereo not given in full), the TGI in test [1] turned out to be 30.2 µM; in [2] it was 11.7 µM; in test [3] it was 13.3 µM; in test [4], 27.3 µM; in test [5], 18.4 µM; in [6], 30.5 µM. Besides, the TGI turned out to be 17 µM in [7], 15 µM in [8], 22.6 µM in test [9] and 21 µM in [10].

Regarding `Cc1cc2nc(CC(C(F)(F)F)C(F)(F)F)oc2cc1C`, the TGI in test [1] is 5.13 µM; in test [2], 1.44 µM; in test [3], 9.41 µM; in test [4], more than 44.4 µM; in [5] it was 10.1 µM; in test [6], 39.7 µM. The TGI worked out at 17.5 µM in test [7], 7.6 µM in test [8], 9.32 µM in test [9] and 3.64 µM in [10].

Consider `COc1ccc2nc3c([N+](=O)[O-])ccc(NCCCN(C)C)c3c(N)c2c1`, for which the TGI in [1] was determined as 3.71 µM; in test [2], 3.23 µM; in test [3], 3.02 µM; in test [4], 3.01 µM; in [5], 2.85 µM; in [6] it was 3.46 µM. In addition, the TGI in test [7] stood at 4.23 µM; in [8], 3.68 µM; in test [9], 3.1 µM; in [10] it was 3.79 µM.

As to `NCCN(CCN)/[N+]([O-])=N/O`, the TGI in [1], in [2], in test [3], in test [4], in test [5] and in test [6] was more than 100 µM in each case. Moreover, the TGI in test [7], in [8], in [9] and in test [10] was more than 100 µM in each case.

Consider `CCOC(=O)CCC(C(=O)OCC)n1nnc2ccc(Nc3c(C)[n+]([O-])c4cc(F)c(OCC)cc4[n+]3[O-])cc21` (stereo not given), for which the TGI in test [1], in test [2], in test [3], in test [4], in test [5] and in [6] was more than 100 µM throughout. For the same molecule, the TGI was more than 100 µM in [7], more than 100 µM in [8], more than 100 µM in [9] and 43.1 µM in test [10].

Take `O=C1c2c(F)c(F)c(F)c(F)c2SC2=Nc3cccc4cccc(c34)N12`: the TGI turned out to be 29 µM in test [1]; 7.79 µM in [2]; 10.7 µM in test [3]; 23.2 µM in test [4]; 24.1 µM in [5]; 26.1 µM in test [6]. Also, the TGI in test [7] came out at 21.1 µM; in test [8] it was 26.5 µM; in test [9], 9.24 µM; in test [10], 11 µM.

For the molecule `O=C(NCCCc1cn[nH]c(=O)n1)c1cccc2nc3ccccc3nc12`, the TGI in test [1], in test [2], in test [3], in test [4], in [5] and in test [6] was more than 100 µM in each case. The TGI in test [7], in [8], in [9] and in test [10] was more than 100 µM throughout.

On to `Cc1cc(N)c2cc(NC(=O)Nc3ccc4nc(C)cc(N)c4c3)ccc2n1`, for which the TGI in test [1], in [2], in test [3], in [4], in [5] and in test [6] was more than 100 µM throughout. Besides, the TGI in test [7], in test [8], in test [9] and in test [10] was more than 100 µM in each case.

Turning to `O=C1NC2OC(CO)C(O)C(O)C2O1` (stereo not given), the TGI in test [1], in test [2], in [3], in [4], in [5] and in test [6] was more than 100 µM each time. Also, the TGI in [7], in [8], in [9] and in [10] was more than 100 µM each time.
